Measurements from ChEMBL document CHEMBL1132059, “Antitumor agents 187: synthesis and cytotoxicity of substituted 8,8-dimethyl-2H,8H-pyrano[6,5-h]quinoline-2-one and related compounds” (1999).
Converted amounts (≈) assume the structure as drawn. The source made the active and inactive calls. No cut-off for these calls is given here.

Columns and labels:
1A9 = assay: Cytotoxic activity against human ovarian cancer (1A9) cell line; format: functional; settings: read-out: ED50 (the source's name)
A549 = assay: Cytotoxic activity against human lung carcinoma (A-549) cell line; format: functional; settings: read-out: ED50 (the source's name)
CAKI-1 [1] = assay: Cytotoxic activity against human renal cancer (CAKI-1) cell line; format: functional; settings: read-out: ED50 (the source's name)
HCT-8 [2] = assay: Cytotoxic activity against human ileocecal carcinoma (HCT-8) cell line; format: functional; settings: read-out: ED50 (the source's name)
KB = assay: Cytotoxic activity against human epidermoid carcinoma of the nasopharynx (KB) cell line; format: functional; settings: read-out: ED50 (the source's name)
MCF7 = assay: Cytotoxic activity against human breast cancer (MCF-7) cell line; format: functional; settings: read-out: ED50 (the source's name)
CAKI-1 [3] = assay: Compound was tested for in vitro growth inhibition of human […] cancer CAKI-1 cell line; format: functional
MDA-MB-435 = assay: Compound was tested for in vitro growth inhibition of human breast cancer MDA-MB-435 cell line; format: functional
NCI-H226 = assay: Compound was tested for in vitro growth inhibition of human non-small cell lung cancer cell line NCI-H226; format: functional
OVCAR-3 = assay: Compound was tested for in vitro growth inhibition of human ovarian cancer OVCAR-3 cell line; format: functional
SF-295 = assay: Compound was tested for in vitro growth inhibition of human […] SF-295 cell line; format: functional
SK-MEL-28 = assay: Compound was tested for in vitro growth inhibition of human melanoma SK-MEL-28 cell line; format: functional
PD-145 = assay: Compound was tested for in vitro growth inhibition of human prostate cancer PD-145 cell line; format: functional
HL-60 = assay: Compound was tested for in vitro growth inhibition of human leukemia cell line HL60; format: functional
COLO 205 = assay: Compound was tested for in vitro growth inhibition of human colon cancer COLO 205 cell line; format: functional
HCT-116 = assay: Compound was tested for in vitro growth inhibition of human colon cancer HCT116 cell line; format: functional
CAKI-1 [4] = assay: Cytotoxic activity against human renal cancer (CAKI-1) cell line; NA=Not active; format: functional, cell-based
HCT-8 [5] = assay: Cytotoxic activity against human ileocecal carcinoma (HCT-8) cell line; NA=Not active; format: functional, cell-based

Row | SMILES | EC50 (1A9) | EC50 (A549) | EC50 (CAKI-1 [1]) | EC50 (HCT-8 [2]) | EC50 (KB) | EC50 (MCF7) | GI50 (CAKI-1 [3]) | GI50 (MDA-MB-435) | GI50 (NCI-H226) | GI50 (OVCAR-3) | GI50 (SF-295) | GI50 (SK-MEL-28) | GI50 (PD-145) | GI50 (HL-60) | GI50 (COLO 205) | GI50 (HCT-116) | ED50 (CAKI-1 [4]) | ED50 (HCT-8 [5])
1 | CC1(C)C=Cc2c(ccc3c(-c4ccccc4)cc(O)nc23)O1 | 10 µg/mL (≈ 33 µM) | 36.3 µg/mL (≈ 120 µM) | > 40 µg/mL | 28 µg/mL (≈ 92.3 µM) | > 40 µg/mL | 30 µg/mL (≈ 98.9 µM) |  |  |  |  |  |  |  |  |  |  |  | 
2 | Cc1cc(O)nc2c3c(ccc12)OC(C)(C)C=C3 |  | 2.2 µg/mL (≈ 9.12 µM) | 2.5 µg/mL (≈ 10.4 µM) | 1.7 µg/mL (≈ 7.05 µM) | 1.6 µg/mL (≈ 6.63 µM) | 1.7 µg/mL (≈ 7.05 µM) | 6.17 µM | 1.74 µM | > 100 µM | 6.03 µM | 30.2 µM | > 100 µM | 3.63 µM | 0.427 µM | 2.75 µM | 4.9 µM |  | 
3 | CCCc1cc(O)nc2c3c(ccc12)OC(C)(C)C=C3 | > 40 µg/mL | > 40 µg/mL |  |  | > 40 µg/mL | > 40 µg/mL |  |  |  |  |  |  |  |  |  |  | inactive | inactive
4 | Cc1c(O)nc2c3c(ccc2c1C)OC(C)(C)C=C3 |  | 25 µg/mL (≈ 97.9 µM) | 35.5 µg/mL (≈ 139 µM) | 32 µg/mL (≈ 125 µM) | 23 µg/mL (≈ 90.1 µM) | 19 µg/mL (≈ 74.4 µM) |  |  |  |  |  |  |  |  |  |  |  | 
5 | Cc1cc2c(C)c(C)c(O)nc2c2c1OC(C)(C)C=C2 |  | 41 µg/mL (≈ 152 µM) | 43 µg/mL (≈ 160 µM) | 41 µg/mL (≈ 152 µM) | 37 µg/mL (≈ 137 µM) | 38 µg/mL (≈ 141 µM) |  |  |  |  |  |  |  |  |  |  |  | 
6 | Cc1cc(=O)n(C(=O)OC(C)(C)C)c2c3c(ccc12)OC(C)(C)C=C3 |  | 4.3 µg/mL (≈ 12.6 µM) | 4.5 µg/mL (≈ 13.2 µM) | 3.6 µg/mL (≈ 10.5 µM) | 2.5 µg/mL (≈ 7.32 µM) | 2.4 µg/mL (≈ 7.03 µM) |  |  |  |  |  |  |  |  |  |  |  | 
7 | Cc1cc(S)nc2c3c(ccc12)OC(C)(C)C=C3 | 12 µg/mL (≈ 46.6 µM) | 30.3 µg/mL (≈ 118 µM) |  | 28.8 µg/mL (≈ 112 µM) | 23 µg/mL (≈ 89.4 µM) | 13.8 µg/mL (≈ 53.6 µM) |  |  |  |  |  |  |  |  |  |  | inactive | 
8 | CC1(C)C=Cc2c(ccc3ccc(O)nc23)O1 | 5.8 µg/mL (≈ 25.5 µM) | 18 µg/mL (≈ 79.2 µM) | > 40 µg/mL | 19.3 µg/mL (≈ 84.9 µM) | 13.1 µg/mL (≈ 57.6 µM) | 14.7 µg/mL (≈ 64.7 µM) |  |  |  |  |  |  |  |  |  |  |  | 
